In PubChem BioAssay (NCI):
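Values below derive from 48-hour exposures of cells grown in 96-well plates, with endpoints linearly interpolated between the two concentrations bracketing the appropriate inhibition level. GI50 = concentration required for 50% inhibition of growth. The concentration for full growth arrest is given as TGI.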

Key:
Assay in all cases: inhibition of tumour cell growth, NCI panel, 48 h
SK-OV-3 ovarian = tested on: SK-OV-3 ovarian
HCT-116 colon = tested on: HCT-116 colon
HT29 colon = tested on: HT29 colon
OVCAR-8 ovarian = tested on: OVCAR-8 ovarian
SF-295 CNS = tested on: SF-295 CNS
A498 renal = tested on: A498 renal
MALME-3M melanoma = tested on: MALME-3M melanoma
OVCAR-5 ovarian = tested on: OVCAR-5 ovarian
TK-10 renal = tested on: TK-10 renal
IGROV1 ovarian = tested on: IGROV1 ovarian

Row | Compound | TGI (SK-OV-3 ovarian) | TGI (HCT-116 colon) | TGI (HT29 colon) | TGI (OVCAR-8 ovarian) | TGI (SF-295 CNS) | TGI (A498 renal) | TGI (MALME-3M melanoma) | TGI (OVCAR-5 ovarian) | TGI (TK-10 renal) | TGI (IGROV1 ovarian) | GI50 (SK-OV-3 ovarian) | GI50 (HCT-116 colon) | GI50 (HT29 colon) | GI50 (OVCAR-8 ovarian) | GI50 (SF-295 CNS) | GI50 (A498 renal) | GI50 (MALME-3M melanoma) | GI50 (OVCAR-5 ovarian) | GI50 (TK-10 renal) | GI50 (IGROV1 ovarian)
1 | N#CCCCC[N+]12CN3CN(CN(C3)C1)C2 | > 100 µM | > 100 µM | > 100 µM | > 100 µM | > 100 µM | > 100 µM | > 100 µM | > 100 µM | > 100 µM | > 100 µM | – | – | – | – | – | – | – | – | – | –
2 | CC(C)=CCNc1ncnc2nc[nH]c12 | > 100 µM | > 100 µM | > 100 µM | > 100 µM | > 100 µM | > 100 µM | > 100 µM | > 100 µM | > 100 µM | > 100 µM | – | – | – | – | – | – | – | – | – | –
3 | Nc1c2c(=O)[nH]c(=O)c2c(N)c2c(=O)c3ccccc3c(=O)c12 | 32.9 µM | > 100 µM | 2.83 µM | 5.82 µM | 3.07 µM | 2.85 µM | 0.581 µM | 3.42 µM | 40.7 µM | 10.8 µM | – | – | – | – | – | – | – | – | – | –
4 | O=C1c2ccccc2C(=O)c2c(Nc3ccc4c5c(cccc35)C(=O)c3ccccc3-4)cccc21 | – | > 100 µM | > 100 µM | – | > 100 µM | > 100 µM | > 100 µM | > 100 µM | > 100 µM | > 100 µM | – | – | – | – | – | – | – | – | – | –
5 | N#CN=C(N)NC(=O)/C=C/C=C/c1ccc(Cl)cc1 | > 100 µM | > 100 µM | > 100 µM | > 100 µM | > 100 µM | > 100 µM | > 100 µM | > 100 µM | > 100 µM | > 100 µM | – | – | – | – | – | – | – | – | – | –
6 | CSc1nc(Cl)c(Br)c(Sc2nc(N)nc3nc[nH]c23)n1 | – | 12.4 µM | 36.8 µM | 41.9 µM | 17.7 µM | – | 26.4 µM | 24.1 µM | 20.9 µM | 28.2 µM | – | – | – | – | – | – | – | – | – | –
7 | O=C(CSc1nc2ccccc2s1)c1sc2sc3ccccc3[n+]2c1[O-] | > 100 µM | > 100 µM | > 100 µM | > 100 µM | > 100 µM | > 100 µM | > 100 µM | > 100 µM | > 100 µM | > 100 µM | – | – | – | – | – | – | – | – | – | –
8 | COc1ccc(C(=O)Cn2c(C(=O)/C=C/c3ccco3)nc3ccccc32)cc1 | 97.4 µM | > 100 µM | > 100 µM | – | – | > 100 µM | > 100 µM | > 100 µM | > 100 µM | > 100 µM | – | – | – | – | – | – | – | – | – | –
9 | CN(C)c1ccc(/C=c2/c3ccccc3n3nc4ccccc4c23)cc1 | > 100 µM | > 100 µM | > 100 µM | > 100 µM | 70.6 µM | 67 µM | > 100 µM | > 100 µM | > 100 µM | > 100 µM | – | – | – | – | – | – | – | – | – | –
10 | O=c1ccc2nc(-c3ccccc3)nn(-c3ccccn3)c-2c1 | 25 µM | 11.3 µM | 15.1 µM | > 100 µM | > 100 µM | 37.3 µM | 3.56 µM | 54.9 µM | 3.14 µM | 45.4 µM | 10.3 µM | 3.33 µM | 3.2 µM | 8.87 µM | 31 µM | 16.6 µM | 1.92 µM | 21.9 µM | 1.71 µM | 14.1 µM
11 | CC(=O)OC(C)C1C2=C(C(=O)CC1(C)O)C(=O)c1c(ccc(-c3ccc4c(c3O)C(=O)C3=C(C4=O)C(C(C)OC(C)=O)C(C)(O)CC3=O)c1O)C2=O (stereo unspecified) | 23.6 µM | 1.77 µM | 3.98 µM | 7.42 µM | 24 µM | 8.51 µM | 2.12 µM | 11.3 µM | 5.41 µM | 22.4 µM | – | – | – | – | – | – | – | – | – | –
12 | COc1ccc(C2CC(c3ccccc3)=Nc3c(-c4ccccc4)nnn32)cc1 (stereo unspecified) | > 100 µM | > 100 µM | > 100 µM | > 100 µM | > 100 µM | > 100 µM | – | > 100 µM | – | > 100 µM | – | – | – | – | – | – | – | – | – | –
13 | O=C1CC(O)c2c(Br)sc(Br)c21 (stereo unspecified) | 30.3 µM | 26.7 µM | 43.1 µM | 24.1 µM | 32 µM | 39.6 µM | 32.9 µM | 38.6 µM | 13.3 µM | 31.9 µM | – | – | – | – | – | – | – | – | – | –
14 | COc1ccc(C[C@H](N)C(=O)NC2C(CO)OC(n3cnc4c(N(C)C)ncnc43)C2O)cc1 (stereo partly specified) | – | 0.293 µM | – | 0.68 µM | 1.57 µM | 2.48 µM | 2.53 µM | 42.3 µM | – | 2.66 µM | – | – | – | – | – | – | – | – | – | –
15 | CC(=O)Nc1ccc(NC(=O)c2c(Cl)c(Cl)c(Cl)c(Cl)c2-c2nc3ccccc3[nH]2)cc1 | > 100 µM | > 100 µM | > 100 µM | > 100 µM | > 100 µM | > 100 µM | > 100 µM | > 100 µM | – | > 100 µM | – | – | – | – | – | – | – | – | – | –
16 | Nc1nc(N)c2c(n1)NC(=O)c1c(c3ccccc3n1Cc1ccc(Cl)cc1)C2 | 45.4 µM | 66.9 µM | > 100 µM | 96.6 µM | 84.7 µM | 30.8 µM | > 100 µM | > 100 µM | 46.9 µM | > 100 µM | – | – | – | – | – | – | – | – | – | –
17 | CC(C)c1cc(CN(C)C)c(O)c(C(C)(C)C)c1 | > 100 µM | > 100 µM | > 100 µM | 99.6 µM | 37.4 µM | 41.3 µM | 76.2 µM | > 100 µM | > 100 µM | > 100 µM | – | – | – | – | – | – | – | – | – | –
18 | C=CC[N+]12CN3CN(CN(C3)C1)C2 | > 100 µM | 58.2 µM | 42.8 µM | 57.6 µM | > 100 µM | 94.1 µM | 45.2 µM | 95.5 µM | 45.4 µM | 66.4 µM | – | – | – | – | – | – | – | – | – | –
19 | N=C(c1ccc2ccccc2c1)c1ccccc1Cc1ccccc1 | > 100 µM | > 100 µM | > 100 µM | > 100 µM | > 100 µM | > 100 µM | – | > 100 µM | > 100 µM | > 100 µM | – | – | – | – | – | – | – | – | – | –
20 | CC(C)(C)c1cc(C2NCCO2)cc(C(C)(C)C)c1O (stereo unspecified) | > 100 µM | > 100 µM | > 100 µM | > 100 µM | > 100 µM | > 100 µM | > 100 µM | > 100 µM | > 100 µM | > 100 µM | – | – | – | – | – | – | – | – | – | –
21 | NC(=O)C(N)=O | > 100 µM | > 100 µM | – | > 100 µM | > 100 µM | > 100 µM | > 100 µM | > 100 µM | > 100 µM | – | – | – | – | – | – | – | – | – | – | –
22 | CCOC(=O)C12CCC(=O)C=C1[C@@H](C)C(=O)CC2 (stereo partly specified) | > 100 µM | > 100 µM | > 100 µM | > 100 µM | > 100 µM | – | > 100 µM | > 100 µM | > 100 µM | > 100 µM | – | – | – | – | – | – | – | – | – | –
23 | COc1ccc(-c2c(=O)[nH]n3c(=S)nc(-c4ccccc4)[nH]c23)cc1OC | 55.9 µM | 31.4 µM | 48.8 µM | 50.4 µM | 51.4 µM | 33.1 µM | 40.7 µM | 47.3 µM | 53.1 µM | 56.7 µM | – | – | – | – | – | – | – | – | – | –
24 | COc1cc(NC(C)=O)ccc1C(=O)N/N=C/c1ccc(Cl)cc1Cl | > 100 µM | > 100 µM | > 100 µM | > 100 µM | > 100 µM | 61 µM | > 100 µM | > 100 µM | – | > 100 µM | – | – | – | – | – | – | – | – | – | –
25 | CC(C)(C)N1C(C(=O)c2ccccc2)C1c1ccccc1 (stereo unspecified) | > 100 µM | – | > 100 µM | > 100 µM | – | – | – | – | > 100 µM | > 100 µM | – | – | – | – | – | – | – | – | – | –
26 | C#CCOc1c(C(=O)OCC)c(=O)n(C)c2ccccc12 | > 100 µM | – | > 100 µM | > 100 µM | > 100 µM | > 100 µM | > 100 µM | – | > 100 µM | > 100 µM | – | – | – | – | – | – | – | – | – | –
27 | O=C(CNc1cccc([N+](=O)[O-])c1)Nn1c(-c2ccccc2)nc2ccccc2c1=O | 2.04 µM | 2.09 µM | 1.08 µM | 5.31 µM | 3.28 µM | 0.274 µM | 2.41 µM | 3.46 µM | 3.95 µM | 0.482 µM | – | – | – | – | – | – | – | – | – | –
